Assay results as given in US20050042266A1, “Cyanoacrylate compositions containing anti-microbial agent” (priority 2003, published 2005).

Key:
[1] = Solubility and stability of 1 wt % triclosan in 2-octyl cyanoacrylate monomer (visual observation); assay type: physicochemical
Protocol: A 2-octyl cyanoacrylate monomer composition is prepared by adding 1 wt % triclosan to 2 mL of 2-octyl cyanoacrylate monomer. The mixture is sealed in a glass vial or plastic vial and stirred. The characteristics of the composition are observed at about one minute after preparation and later at least twenty-four hours after preparation.

[2] = Compatibility of triclosan/2-octyl cyanoacrylate composition with sterilization (visual observation); assay type: physicochemical
Protocol: A 2-octyl cyanoacrylate monomer composition is prepared as in Example 1 by adding 1 wt % triclosan to 2 mL of 2-octyl cyanoacrylate monomer. The mixture is sealed in a glass vial or plastic vial and stirred.
After sitting for about twenty-four hours, the mixture contained in the plastic vial is sterilized using electron beam sterilization to a Sterility Assurance Level (SAL) of 10^−6. After sitting for about twenty-four hours, the mixture contained in the glass vial is sterilized using dry heat sterilization to a Sterility Assurance Level (SAL) of 10^−6. The characteristics of the sterilized compositions are observed at about one minute after sterilization and later at least twenty-four hours after sterilization.

SMILES: Oc1cc(Cl)ccc1Oc1ccc(Cl)cc1Cl [triclosan, 2,4,4′-trichloro-2 hydroxy di-phenyl ether]
- premature polymerization (stability of monomer composition) ([1]; 1 wt % in 2-octyl cyanoacrylate, about one minute and at least twenty-four hours after preparation): does not cause premature polymerization
- solubility in the monomer ([1]; 1 wt % in 2 mL 2-octyl cyanoacrylate, observed about one minute and at least twenty-four hours after preparation, solution remains clear): soluble in the monomer
- compatibility with dry heat sterilization ([2]; 1 wt % in 2-octyl cyanoacrylate, glass vial, SAL 10^-6, solution remains clear): compatible
- compatibility with electron beam sterilization ([2]; 1 wt % in 2-octyl cyanoacrylate, plastic vial, SAL 10^-6, solution remains clear): compatible with electron beam sterilization
- premature polymerization during or after sterilization ([2]; about one minute and at least twenty-four hours after sterilization): does not cause premature polymerization during or after sterilization
